Results from patent US20190209539A1, “THIOHYDANTOIN ANDROGEN RECEPTOR ANTAGONISTS FOR THE TREATMENT OF CANCER” (Janssen Pharmaceutica NV, priority 2016, published 2019).
Substitutions are numbered along the chain they refer to.

Key:
[1] = target: T1, wild-type Androgen Receptor (AR-wt) (Homo sapiens, UniProt P10275); test: LNCaP-AR-wt AG: ARE luciferase reporter assay, agonist mode; assay type: cell-based; details: maximum % stimulation (agonist response), % of 1 μM R-1881 max
T1 construct: expressed in transfected cells; host or cells: LNCaP AR (cs) cells with ARE firefly luciferase lentiviral construct
T1 sequence (P10275 1-920): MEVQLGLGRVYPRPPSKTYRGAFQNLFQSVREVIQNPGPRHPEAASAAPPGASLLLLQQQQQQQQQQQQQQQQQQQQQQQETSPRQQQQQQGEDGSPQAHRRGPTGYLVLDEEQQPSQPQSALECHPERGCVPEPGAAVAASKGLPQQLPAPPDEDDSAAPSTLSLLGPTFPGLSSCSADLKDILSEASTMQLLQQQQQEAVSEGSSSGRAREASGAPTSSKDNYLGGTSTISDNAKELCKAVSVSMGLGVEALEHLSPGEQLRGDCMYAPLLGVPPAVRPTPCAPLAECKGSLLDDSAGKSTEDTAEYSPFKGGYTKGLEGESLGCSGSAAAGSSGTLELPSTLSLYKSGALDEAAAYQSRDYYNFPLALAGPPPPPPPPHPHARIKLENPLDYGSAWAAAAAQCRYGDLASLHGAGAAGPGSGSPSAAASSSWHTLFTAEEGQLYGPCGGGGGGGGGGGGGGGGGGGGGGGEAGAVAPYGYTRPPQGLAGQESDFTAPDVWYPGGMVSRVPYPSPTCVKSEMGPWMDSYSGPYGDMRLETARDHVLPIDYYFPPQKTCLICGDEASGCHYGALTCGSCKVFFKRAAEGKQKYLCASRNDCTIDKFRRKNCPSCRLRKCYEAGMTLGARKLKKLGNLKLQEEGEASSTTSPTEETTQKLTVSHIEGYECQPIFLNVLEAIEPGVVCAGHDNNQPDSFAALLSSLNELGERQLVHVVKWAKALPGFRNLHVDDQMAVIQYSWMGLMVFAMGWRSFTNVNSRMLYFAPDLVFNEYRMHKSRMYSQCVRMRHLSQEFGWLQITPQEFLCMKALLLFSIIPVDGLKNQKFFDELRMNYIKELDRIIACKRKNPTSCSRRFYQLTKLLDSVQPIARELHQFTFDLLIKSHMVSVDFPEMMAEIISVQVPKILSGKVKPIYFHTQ
Procedure: (§1) A stable pooled-population cell line was generated using puromycin (Life Technologies) selection at 1:10,000 v/v. The protocol below was used for both cell lines and for testing of the compounds of Formula (I) of the present invention.
(§2) LNCaP cells were grown to about 80% confluence, media removed and cells rinsed in Hank's balanced salt solution prior to separation from the plate with 0.05% Trypsin EDTA. Cells were lifted and trypsin negated in complete CSS (charcoal stripped serum) culture media. […] Agonist challenge was at 400 pM for WT assay and 600 pM for F876L assay. Plates containing cells and compounds herein were incubated for a further 20-24 hours at 37° C., 5% CO2 before addition of 40 μL/well of Steady-Glo Luciferase Assay System Reagent (Promega# E2520). After 1 h, plates were read for luminescence on a BMG Pherastar.
(§3) EC/IC50 calculations were achieved utilizing calculated RLU data and data fitting macros. Data were fit using least-squares methods to the following formula: […]
(§4) As used herein: pIC50 is defined as—Log10(IC50 expressed in [Molar]). pEC50 is defined as—Log10(EC50 expressed in [Molar]). […] LNCaP-AR-wt ANT refers to the reporter assay using LNCaP cells stably transfected with the Androgen Response Element Firefly Luciferase lentiviral construct and wild-type Androgen Receptor (AR-wt) in Antagonist mode. LNCaP-AR-wt AG refers to the reporter assay using LNCaP cells stably transfected with the Androgen Response Element Firefly Luciferase lentiviral construct and wild-type Androgen Receptor (AR-wt) in Agonist mode. LNCaP-AR-F876L ANT refers to the reporter assay using LNCaP cells stably transfected with the Androgen Response Element Firefly Luciferase lentiviral construct and F876L mutant Androgen Receptor (AR-F876L) in Antagonist mode. LNCaP-AR-F876L AG refers to the reporter assay using LNCaP cells stably transfected with the Androgen Response Element Firefly Luciferase lentiviral construct and F876L mutant Androgen Receptor (AR-F876L) in Agonist mode.

[2] = target: T2, F876L mutant Androgen Receptor (AR-F876L) (Homo sapiens, UniProt P10275, F877L); test: LNCaP-AR-F876L AG: ARE luciferase reporter assay, agonist mode; assay type: cell-based; details: maximum % stimulation (agonist response), % of 1 μM R-1881 max
T2 construct: expressed in transfected cells; host or cells: LNCaP F876L cells with ARE firefly luciferase lentiviral construct
T2 sequence (P10275 1-920 F877L): T1 sequence (P10275 1-920) with F877L
Procedure: as §1, §2, §3, §4

| SMILES | LNCaP-AR-wt AG MAX % Stim [1] [%] | LNCaP-AR-F876L AG MAX % Stim [2] [%] |
| --- | --- | --- |
| Cc1cc(N2C(=O)C3(CCC3)N(c3ccc(OC4CCOCC4)cc3)C2=S)cnc1C#N [Cpd 87, 3-methyl-5-[5-oxo-8-(4-tetrahydropyran-4-yloxyphenyl)-7-thioxo-6,8-diazaspiro[3.4]octan-6-yl]pyridine-2-carbonitrile] | 1.1 | 0.9 |
| N#Cc1ncc(N2C(=O)C3(CCC3)N(c3ccc(Oc4cncnc4)cc3)C2=S)cc1C(F)(F)F [Cpd 88, 5-[5-oxo-8-(4-pyrimidin-5-yloxyphenyl)-7-thioxo-6,8-diazaspiro[3.4]octan-6-yl]-3-(trifluoromethyl)pyridine-2-carbonitrile] | 0.7 | 0.7 |
| N#Cc1ncc(N2C(=O)C3(CCC3)N(c3ccc4[nH]ncc4c3)C2=S)cc1C(F)(F)F [Cpd 92, 5-[8-(1H-indazol-5-yl)-5-oxo-7-thioxo-6,8-diazaspiro[3.4]octan-6-yl]-3-(trifluoromethyl)pyridine-2-carbonitrile] | 2.8 | 1.3 |
| Cc1cc(N2C(=O)C3(CCC3)N(c3ccc(-c4cncnc4)cc3)C2=S)cnc1C#N [Cpd 93, 3-methyl-5-[5-oxo-8-(4-pyrimidin-5-ylphenyl)-7-thioxo-6,8-diazaspiro[3.4]octan-6-yl]pyridine-2-carbonitrile] | 0.9 | 0.8 |
| Cc1cc(N2C(=O)C3(CCC3)N(c3ccc(C4CCOCC4)cc3)C2=S)cnc1C#N [Cpd 101, 3-methyl-5-[5-oxo-8-(4-tetrahydropyran-4-ylphenyl)-7-thioxo-6,8-diazaspiro[3.4]octan-6-yl]pyridine-2-carbonitrile] | 1.1 | 1.7 |
| N#Cc1ncc(N2C(=O)C3(CCC3)N(c3ccc(Oc4ccccn4)cc3)C2=S)cc1C(F)(F)F [Cpd 103, 5-[5-oxo-8-[4-(2-pyridyloxy)phenyl]-7-thioxo-6,8-diazaspiro[3.4]octan-6-yl]-3-(trifluoromethyl)pyridine-2-carbonitrile] | 4.0 | 2.0 |
| C#CCNC(=O)c1ccc(N2C(=S)N(c3cnc(C#N)c(C(F)(F)F)c3)C(=O)C23CCC3)cc1F [Cpd 111, 4-[6-[6-cyano-5-(trifluoromethyl)-3-pyridyl]-5-oxo-7-thioxo-6,8-diazaspiro[3.4]octan-8-yl]-2-fluoro-N-prop-2-ynyl-benzamide] | 0.5 | 2.7 |
| Cc1cncc(-c2ccc(N3C(=S)N(c4cnc(C#N)c(C)c4)C(=O)C34CCC4)cc2)c1 [Cpd 114, 3-methyl-5-[8-[4-(5-methyl-3-pyridyl)phenyl]-5-oxo-7-thioxo-6,8-diazaspiro[3.4]octan-6-yl]pyridine-2-carbonitrile] | 0.7 | 3.3 |
